No end group written: not given here.
Columns and labels:
[1] = system: Zymosan-induced murine dorsal air pouch model; format: in vivo, mice; settings: 200 μg/mouse i.v., 4 h
Protocol: In order to analyze the ability of P58 to exert in vivo effects via the FPRL1 receptor, an acute experimental model of inflammation, the Zymosan-induced murine dorsal air pouch model, was used.
Male out-bred Swiss albino mice were purchased from Harlan, UK (T.O. strain) and maintained on a standard chow pellet diet with tap water ad libitum and a 12:00 h light/dark cycle. All animals were housed for 7 days prior to experimentation to allow body weight to reach ˜30 g on the day of the experiment.
Drugs were stored at −20° C. and defrosted on the day of the experiment. Peptide P58 was provided lyophilized; it was taken back to room temperature and dissolved with sterile PBS before use to make an initial 1 mg/ml solution. […]
Flow cytometry was performed using FACScan analyser (Becton Dickinson, Cowley, UK) with air-cooled 100 mW argon laser tuned to 488 nm connected to an Apple Macintosh G3 computer running Cell Quest II software. […] Cells positive for GR-1 were detected in the FL2 channel (wavelength of 548 nm). Data are expressed as percentage of positive cells (in relation to the specific mAb). […] Once determined, quadrants were rigorously maintained for all analyses.
Data are shown for single mice, and also shown as mean±S.E. of (n) mice per group. Statistical differences were determined by ANOVA, plus Student Newman Keuls test. […]

FPRL1 [2] = target: T1, FPRL1 (Homo sapiens, UniProt P25090); assay: Competitive radioligand binding assay ([125I] WKYMVm) to FPRL1 in CHO transfected cells; set-up: expressed in transfected cells; host or cells: CHO transfected cells; settings: 0.025 nM [125I] WKYMVm, 90 minutes at 25° C.; read-out: IC50, inhibition of W peptide binding
T1 sequence (P25090 1-351): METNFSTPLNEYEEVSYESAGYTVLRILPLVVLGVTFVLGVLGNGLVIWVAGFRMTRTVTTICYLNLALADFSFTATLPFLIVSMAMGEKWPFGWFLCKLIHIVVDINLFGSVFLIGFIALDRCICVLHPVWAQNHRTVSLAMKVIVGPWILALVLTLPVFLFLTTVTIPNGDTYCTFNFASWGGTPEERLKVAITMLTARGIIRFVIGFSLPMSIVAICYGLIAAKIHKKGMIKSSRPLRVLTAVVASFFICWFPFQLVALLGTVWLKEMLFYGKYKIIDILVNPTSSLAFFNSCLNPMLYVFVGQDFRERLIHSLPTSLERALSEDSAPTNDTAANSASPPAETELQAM
Protocol: The specific binding of Peptide 58 (SEQ ID NO:1) to FPRL1 was analyzed by testing its ability to compete with 0.025 nM [^125I] WKYMVm (W peptide), a known agonist of FPRL1, for binding to FPRL1 in CHO transfected cells. CKβ8-1 (aa 46-137), another known ligand of FPRL1 was used as a positive control in this assay (Chiang et al 2006, Pharmacological Reviews 58, 463-487). Peptides were incubated with cells for 90 minutes at 25° C., in the presence of Incubation Buffer (50 mM HEPES, pH 7.4, 100 mM NaCl, 5 mM KCl, 5 mM MgCl2, 2 mM Ca Cl2, 0.5% BSA) and the amount of radioactive W peptide was measured.

FPRL1 [3] = target: T1, FPRL1; assay: Calcium flux in CHO-K1 cells co-transfected with FPRL1 and Gα16; format: cell-based; set-up: expressed in transfected cells; host or cells: CHO-K1 (ATCC-CCL-61), transient co-transfection
Protocol: The assay was carried out in CHO cells were transiently transfected with the GPCR of choice, by utilizing the promiscuous Gα16 to divert signaling to the Gq pathway, thus enabling readout of GPCR activation by testing for Calcium flux as described by Liu et al 2003 (Biomol Screen 8, 39-49).
All the peptides thus obtained were tested for their ability to change calcium flux in CHO—K1 cells (ATCC-CCL-61) transiently co-transfected with an expression vector containing the GPCR of choice and expression vector containing the Gα16 encoding cDNA. Expression constructs containing cDNA clones for MrgX1, MrgX2, Mas or FPRL1 were commercially obtained in one of the following expression vectors: pcDNA3.1, pCMV6, or MO2.
Transient transfections were performed using CHO—K1 cells as host cells. Cells (12 million) were plated into T75 flasks on the day preceding transfection. Cells were transfected with the appropriate GPCR expression vector and with a vector expressing Gα16 using a lipid-based reagent, MTI, according to the manufacturer's recommendation. Cells were transfected for 5 hours, then re-plated into 96-well dishes (60,000 cells per well) and grown overnight.
On the day of the experiment, cells were loaded with Fluo4-NW (Invitrogen) according to the manufacturer's recommendation. Plates were loaded into a FlexStation™ (Molecular Devices) plate reader and fluorescence was monitored. Seventeen seconds following initiation of reading, cells were stimulated with the indicated agonist/compound at final concentration of 1 μM. Each 96 well plate contained cells transfected with one GPCR expression vector and each of the examined peptides was tested in triplicate.
We defined a hit as a peptide which elicited a clear and distinct increase in intracellular calcium that is clearly visible and statistically significant upon examination of the calcium trace for at least two repeats. The criterion for statistical significance was a p-value lower than 0.001 in a t-test comparing the levels of calcium before and after peptide addition.
Based on dose response experiments, EC50 best fit values were calculated by non-linear regression of sigmoidal dose-response curves, using Prism version 4 (GraphPad Software Inc., San Diego, Calif.). The formulae for the sigmoidal dose-response curves was defined as Y=Bottom+(Top−Bottom)/(1+10^ (LogEC50−X)*HillSlope))
The ability of Peptides to change calcium flux was examined in CHO—K1 cells co-transfected with FPRL1 and Gal 6.

| IC50 (FPRL1 [2]) | calcium flux relative to the negative control (FPRL1 [3]; 1 μM, three wells, about 20 to 90 seconds) | calcium flux, P58 and derivatives (FPRL1 [3]; dose response) | Substance | inhibition of leukocyte accumulation triggered by zymosan A [1] | inhibition of neutrophil (GR-1+) accumulation triggered by zymosan A ([1]; FACS) |
| --- | --- | --- | --- | --- | --- |
|  |  |  | Ac2-26: a peptide derived from the N-terminus of AnnexinI; known FPRL1 agonist possessing anti-inflammatory activity; positive control (AMVSEFLKQAWFIENEEQEYVQTVK) | inhibited significantly | 52% |
| 189 nM | increased calcium flux | elicited calcium flux | TIPMFVPESTSKLQKFTSWFM-NH2 [Peptide P58] |  |  |

— patent US8349801B2, “Peptide ligands for G-protein coupled receptors” (priority 2006, dated 2013)
